# US11116757B2 (priority 2015, dated 2021)
# Biological target: DCN1-UBC12 interaction (Homo sapiens (Human), UniProt Q96GG9)
# Test: biochemical
# Format: binding
# Details: Table 4, commercial compounds; read-out: TR-FRET IC50
# Chain of DCN1-UBC12 interaction (Q96GG9 60-248 limits assumed): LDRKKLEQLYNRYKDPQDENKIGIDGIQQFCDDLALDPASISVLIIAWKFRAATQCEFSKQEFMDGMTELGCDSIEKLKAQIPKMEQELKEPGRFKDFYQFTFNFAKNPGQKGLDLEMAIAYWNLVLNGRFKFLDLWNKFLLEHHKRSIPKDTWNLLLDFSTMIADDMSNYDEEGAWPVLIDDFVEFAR
row,Compound,IC50 [µM]
1,O=C(Nc1cccc([N+](=O)[O-])c1)C1CCN(C(=O)c2cccc3ccccc23)CC1 [C64],> 67.6
2,Cc1ccc(NC(=O)C2CCN(C(=O)c3ccccc3C)CC2)cc1C [C22],> 67.6
3,O=C(Nc1ccc(F)c(Cl)c1)C1CCN(C(=O)c2ccc(Br)cc2)CC1 [C70],> 83.8
4,CCOc1ccc(NC(=O)C2CCN(C(=O)c3ccccc3Cl)CC2)cc1 [C48],> 67.6
5,Cc1ccc(NC(=O)C2CCN(C(=O)c3ccc(Cl)cc3)CC2)cc1Cl [C6],38.1

# Same assay, conditions: Table 6, commercial compounds; read-out: TR-FRET IC50
row,Compound,IC50 [µM]
1,Cc1cnc(-n2ncc(C(=O)N3CCN(C(C)C)CC3)c2C)nc1-c1cccs1 [E35],> 67.6
2,CCN(CC)CCN(CC)C(=O)c1cnn(-c2ncc(C)c(-c3cccs3)n2)c1COC [E16],33.3
3,CCOC(=O)CCNC(=O)c1cnn(-c2ncc(C)c(-c3cccs3)n2)c1C [E56],> 67.6

# Same assay, conditions: read-out: TR-FRET IC50
row,Compound,IC50 [µM]
1,O=C(NC1CCN(Cc2cccc(F)c2)CC1)C(F)(F)F [A307],> 98.1
2,CCCC(C)N1CCC(N(Cc2ccccc2)C(=O)Nc2ccc(Cl)cc2C(=O)OC)CC1 (centres unmarked) [A266],> 66.2
3,CCCC(C)N1CCC(N(Cc2ccccc2)C(=O)Nc2c(OC)cccc2OC)CC1 (centres unmarked) [A299],> 85.7
4,O=C(NCc1cccc(C(F)(F)F)c1)C1CCN(Cc2ccccc2)CC1 [B41],> 63.9
5,O=C(c1ccccc1F)N1CCC(c2nc3ccccc3s2)CC1 [D13],45.3
6,1-(1-(2-Methylbenzyl)Piperidin-4-yl)-3-(3-(Trifluoromethyl)Phenyl)Urea [A137],3.8
7,Cc1cc(C)cc(C(=O)N2CCC(c3nc4ccccc4s3)CC2)c1 [D10],25.4
8,CCCC(C)N1CCC(N(Cc2ccccc2)C(=O)Nc2cc(C)ccc2F)CC1 (centres unmarked) [A181],19.8
9,C=CC(=O)NCCCN(C(=O)Nc1cccc(C(F)(F)F)c1)C1CCN(C(C)CCC)CC1 (centres unmarked) [A134],3.34
10,CCCC1CCC(N(Cc2ccccc2)C(=O)Nc2cccc(C(F)(F)F)c2)CC1 (centres unmarked) [A232],> 38.7
11,CCCC(C)N1CCC(N(Cc2ccccc2)C(=O)Nc2ccc(Cl)c([N+](=O)[O-])c2)CC1 (centres unmarked) [A11],0.0818
12,O=C(Nc1cc(F)cc(C(F)(F)F)c1)N(Cc1ccccc1)C1CCN(Cc2cc[nH]n2)CC1 [A213],> 22.5
13,O=C(Nc1cccc(C(F)(F)F)c1)N(Cc1ccccc1)C1CC2CCC(C1)N2Cc1ccccc1 (centres unmarked) [A105],1.87
14,"CCCN1CCC(N(CCOC)C(=O)Nc2cccc(C(F)(F)F)c2)CC1 [A248, 1-(2-Methoxyethyl)-1-(1-Propylpiperidin-4-yl)-3-(3-(Trifluoromethyl)Phenyl)Urea]",> 58.9
15,CCCC(C)N1CCC(N(Cc2ccccc2)C(=O)Nc2ccc(CC#N)cc2)CC1 (centres unmarked) [A176],13.7
16,CCCC(C)N1CCC(N(CCCNC(=O)CCl)C(=O)Nc2cccc(C(F)(F)F)c2)CC1 (centres unmarked) [drawing 836],> 53
17,"Cn1nccc1-c1cccc(NC(=O)NC2CCN(Cc3ccccc3)CC2)c1 [A263, 1-(1-Benzylpiperidin-4-yl)-3-(3-(1-Methyl-1H-Pyrazol-5-yl)Phenyl)Urea]",> 64.6
18,CCc1ccc(NC(=O)NC2CCN(C(C)C)CC2)cc1 [B62],> 67.6
19,CC(N1CCC(N(Cc2ccccc2)C(=O)Nc2cccc(C(F)(F)F)c2)CC1)C(F)(F)F (centres unmarked) [A223],> 25.3
20,CC(c1ccc2c(c1)OCO2)N1CCC(N(Cc2ccccc2)C(=O)Nc2cc(F)cc(C(F)(F)F)c2)CC1 (centres unmarked) [A128],2.39
21,CCN1CCC(N(Cc2ccco2)C(=O)Nc2ccc(OC)cc2)CC1 [B79],> 67.6
22,C=CS(=O)(=O)NCCN(C(=O)Nc1cccc(C(F)(F)F)c1)C1CCN(C(C)CCC)CC1 (centres unmarked) [A235],> 41.1
23,CCCC(C)N1CCC(N(Cc2ccccc2)C(=O)Nc2cc(Cl)ccc2F)CC1 (centres unmarked) [A159],7.72
24,O=C(Nc1cc(F)cc(C(F)(F)F)c1)N(Cc1ccccc1)C1CCN(Cc2ncc[nH]2)CC1 [A225],> 26.1
25,O=C(Nc1cc(F)cc(C(F)(F)F)c1)N(Cc1ccccc1)C1CCN(CC2CCOC2)CC1 (centres unmarked) [A144],4.49
26,CCCC(C)N1CCC(N(Cc2ccccc2)C(=O)Nc2ccc3c(c2)CCC3)CC1 (centres unmarked) [A8],0.0767
27,CC1CN(Cc2ccccc2)CC(C)C1NC(=O)Nc1nccs1 (centres unmarked) [B9],18.6
